Laboratory results published in US20060280687A1, “Compounds for tissue imaging and methods of use thereof” (priority 2005, published 2006).

Experiments:
C6 rat glioma cells = assay: In vitro cell uptake by fluorescence microscopy, C6; assay type: cell-based; details: 1 hour
Protocol: (§1) For fluorescence microscopic studies, 1 M cells were cultured on 35 mm MatTek glass bottom culture dishes (Cat #: P35G-0-14-C, Ashland, Mas.). After 24 hours, the cells were washed with phosphate-buffered saline (PBS) and then incubated at 37° C. or 4° C. in the presence of 100 nM Cy5.5-2DG for 1 hour. Afterwards, cells were washed in 1 mL ice-cold PBS. The fluorescence signal of the cells was recorded using an Axiovert 200M fluorescence microscope (Carl Zeiss MicroImaging, Inc., Thornwood, N.Y.) equipped with a Cy5.5 filter set (Exciter, HQ 650/20 nm; Emitter, HQ 675/35 nm). An AttoArc HBO 100 W microscopic illuminator was used as a light source for fluorescence excitation. Images were taken using a thermoelectrically cooled charge-coupled device (CCD) (Micromax, model RTE/CCD-576, Princeton Instruments Inc., Trenton, N.J.) and analyzed using WinView Software version 1.6.2 (Princeton Instruments Inc., Trenton, N.J.)
Additional in vitro studies were conducted with several other tumor cells lines, including C6 rat glioma cells. Following the procedure set forth in Example 2, the glioma cells were incubated for one hour at 37° C. or at 4° C., and light images and fluorescent images were taken. The light images are shown in FIGS. 6A and 6B and the fluorescent images in FIGS. 6C and 6D. Both light images show cells in the image field.

[1] = system: human glioblastoma xenograft (U87MG); assay: In vivo fluorescence imaging of mice bearing a U87MG glioblastoma xenograft
Protocol: All animal studies were carried out in compliance with federal and local institutional rules for the conduct of animal experimentation. Female athymic nude mice (nu/nu, 10-12 weeks old), obtained from Charles River Laboratories (Boston, Mas.), were inoculated subcutaneously in the right foreleg with 5×10^6 U87MG cultured glioblastoma cells suspended in 100 μL of PBS. Two to three weeks after inoculation, when the tumors reached 0.4-0.6 cm in diameter, the tumor bearing mice were subject to in vivo imaging studies.
In vivo fluorescence imaging was performed with a cooled charged-coupled device (CCD) camera (Xenogen IVIS™ 200 small animal imaging system, Xenogen, Alameda, Calif.). A Cy5.5 filter set was used for acquiring Cy5.5-2DG fluorescence in vivo. Identical illumination settings (lamp voltage, filters, f/stop, field of views, binning) were used for acquiring all images, and fluorescence emission was normalized to photons per second per centimeter squared per steradian (p/s/cm^2/sr). Images were acquired and analyzed using Living Image® D2.5 software (Xenogen).
Mice were injected via tail vein with 50 or 500 pmol Cy5.5-2DG and subjected to optical imaging at various time points post injection with a sampling of multiple angles while remaining sedated. […]
All the data are given as means ± SD of n independent measurements. Statistical analysis was performed using a Student's t-test. Statistical significance was assigned for P values <0.05. For determining tumor contrast, mean fluorescence intensities of the tumor area at the right shoulder of the animal (T) and of the corresponding area at the left shoulder (N) were calculated by means of the region of interest function of Living Image software(Xenogen) integrated with Igor (Wavemetrics, Lake Oswego, Oreg.). Dividing T by N yielded the contrast between tumor tissue and normal tissue.
In vivo studies were done to evaluate performance of the Cy5.5-2DG compound in tumor-bearing subjects. As described in Example 3, mice were inoculated in the right foreleg with 5×10^6 U87MG cultured glioblastoma cells. Two to three weeks after inoculation, when the tumors reached 0.4-0.6 cm in diameter, the tumor-bearing mice were used for in vivo imaging studies.
In one study, the mice received 500 pmol of Cy5.5-2DG compound, injected via tail vein. At various times post injection of the probe, an animal was sedated and then imaged using a small animal imaging system available under the trade designation IVIS® (Xenogen, Alameda, Calif.). In other studies described below with respect to FIGS. 22-23, imaging was also done using an imaging system from ART eXplore Optix (ART Inc./GE Healthcare) and compared to imaging using the imaging system IVIS®. FIGS. 10A-10M are images generated with the IVIS® system of sedated, live mice in the prone position as a function of time after administration of 500 pmol of Cy5.5-2DG. […] At 1 hour (FIG. 10B), 2 hours (FIG. 10C), 4 hours (FIG. 10D), and 5 hours (FIG. 10E), the probe progressively clears from the body and begins to localize in the tumor in the right foreleg. In fact, by two hours post injection, accumulation of the compound in the tumor is readily apparent in the image (FIG. 10C). […] The presence of the probe in the tumor is apparent in all the images, long after the probe has cleared from healthy tissue.

[2] = system: human melanoma (A375M) xenograft; assay: In vivo fluorescence imaging of mice bearing a human melanoma (A375M) xenograft; details: n=3
Protocol: Another study was conducted using mice (n=3) bearing a human melanoma (A375M) xenograft. When the tumor reached […] diameter, the mice received via tail vein injection 500 pmol of Cy5.5-2DG compound.

[3] = system: murine melanoma cells B16F10; assay: In vitro cell uptake by fluorescence microscopy, B16F10; assay type: cell-based; details: 1 hour
Protocol: as §1
FIGS. 8A and 8C show a light image (FIG. 8A) and a fluorescent image (FIG. 8C) of murine melanoma cells B16F10 incubated in vitro with Cy5.5-2DG for one hour at 37° C. […] FIGS. 8B and 8D show a light image (FIG. 8B) and a fluorescent image (FIG. 8D) of the same type of cells incubated in vitro with Cy5.5-2DG for one hour at 4° C.

[4] = system: A375M human melanoma cells; assay: In vitro cell uptake by fluorescence microscopy, A375M; assay type: cell-based; details: 1 hour
Protocol: as §1
The light images (FIGS. 7A and 7B) show cells in the optical field.

[5] = system: MDA-MB-435 human breast carcinoma cells; assay: In vitro cell uptake by fluorescence microscopy, MDA-MB-435; assay type: cell-based; details: 1 hour
Protocol: as §1
FIGS. 9A-9D illustrate the results of a similar study using MDA-MB-435 human breast carcinoma cells. Incubation at 37° C. […] (FIGS. 9B and 9D).

[6] = system: human glioblastoma cells (U87MG); assay: In vitro cell uptake by fluorescence microscopy, U87MG; assay type: cell-based; details: 100 nM, 1 hour
Protocol: Human glioblastoma U87MG cells were cultured in Dulbecco's modified Eagle medium (DMEM, Invitrogen Life Technologies, Carlsbad, Calif.), high glucose plus 10% fetal bovine serum (FBS), and 1% penicillin-streptomycin. The cells were maintained in a humidified atmosphere of 5% CO2 at 37° C., with the medium changed every other day. A confluent monolayer was detached with trypsin and dissociated into a single cell suspension for further cell culture.
as §1, with “After 24 hours, the cells were washed with phosphate-buffered saline (PBS) and then incubated at 37° C. or 4° C. in the presence of 100 nM Cy5.5-2DG for 1 hour. Afterwards, cells were washed in 1 mL ice-cold PBS.” left out
Tumor uptake of the Cy5.5-2DG compound into human glioblastoma cells (U87MG) was determined by incubating the cells in vitro with the compound for one hour at either 37° C. or at 4° C., as described in Example 2. […]

[7] = UV absorption and fluorescence spectra; assay type: physicochemical
Protocol: The crude product was then injected onto a semi-preparative HPLC column, where the flow rate was 3 mL/min, with the mobile phase starting from 5% solvent B (0.1%TFA in CH3CN) and 95% solvent A (0.1%TFA in water) (0-3 min) to 65% solvent B and 35% solvent A at 33 min, then going to 85% solvent B and 15% solvent A (33-36 min), maintaining this solvent composition for another three minutes (36-39 min), and returning to initial solvent composition by 42 min. Product elution was monitored at both 218 and 590 nm using a UV-Vis detector. The product peak was collected, lyophilized, and identified by MALDI-TOF-MS. The chemical purity of product was determined by analytical HPLC (same gradient as used for semi-preparative HPLC; flow rate: 1.0 ml/min). The product was re-dissolved in saline at a concentration of 1 mg/mL, and stored in the dark at −80° C. until use. The absorbance spectrum of Cy5.5-2DG was rerecorded on an Agilent 8453 UV-visible ChemStation (Agilent Technologies, Wilmington, DE), and fluorescence spectrum of Cy5.5-2DG was measured on a Fluoromax-3 fluorophotometer (JOBIN YVON/HORIBA, Edison, N.J.).

[8] = Stability on in vitro incubation in mouse serum, HPLC analysis; assay type: in vitro ADME; details: 30 minutes incubation in mouse serum
Protocol: The stability of the Cy5.5-2DG compound was evaluated by incubating the compound in vitro in mouse serum and analyzing the serum as a function of time by high pressure liquid chromatography (HPLC). […] The main peak is observed at 15.2 minutes.

[9] = 500 pmol i.v., lateral position

## CC[N+]1=C(C=CC=CC=C2N(CCCCCC(=O)NC3C(O)OC(CO)C(O)C3O)c3ccc4c(S(=O)(=O)[O-])cc(S(=O)(=O)O)cc4c3C2(C)C)C(C)(C)c2c1ccc1c(S(=O)(=O)[O-])cc(S(=O)(=O)O)cc21.[K+] (stereo not shown) [Cy5.5-2DG]
C6 rat glioma cells; 4° C.
  uptake into the cells: took up little, if any, of the compound
C6 rat glioma cells; 37° C.
  uptake into the cells: distinct fluorescing cells visible
[1]; 50 pmol i.v., lateral position
  ratio of fluorescence intensity of tumor tissue to healthy tissue: about two
  time after injection at which accumulation in the tumor is apparent: 1 h
[1]; 50 pmol i.v., prone position
  time after injection at which preferential accumulation in the tumor is apparent: 30 min
  time to maximum fluorescence intensity: ≤ 30 min
[1]; 50 pmol i.v., prone position, 30 minutes after injection
  ratio of fluorescence intensity of tumor tissue to healthy tissue: 1.5
[1]; 50 pmol i.v., prone position, by about 10 hours after injection
  ratio of fluorescence intensity of tumor tissue to healthy tissue: more than two
[1]; [9]
  latest time point with fluorescence of the tumor tissue observed: 94 h
  time by which compound has cleared from the tumor (tumor no longer visible): ≤ 114 h
  time post injection at which localization in the tumor is apparent in the image: two
[1]; 500 pmol i.v., lateral position, by about five hours post injection
  ratio of fluorescence intensity of tumor tissue to healthy tissue: two
[1]; 500 pmol i.v., lateral position, up to 100 hours post injection
  ratio of fluorescence intensity of tumor tissue to healthy tissue: around two
[1]; 500 pmol i.v., prone position
  time post injection at which accumulation in the tumor is apparent in the image: two
[1]; 500 pmol i.v., prone position, 120 hours post injection
  ratio of fluorescence intensity of tumor tissue to healthy tissue (average radiance): 1.5
[1]; 500 pmol i.v., prone position, about 4 hours post-injection
  ratio of fluorescence intensity of tumor tissue to healthy tissue (average radiance): 1.5
[1]; 500 pmol i.v., prone position, about 18 hours post injection
  ratio of fluorescence intensity of tumor tissue to healthy tissue (average radiance): two
[1]; 500 pmol, 45 hours post injection
  ex vivo fluorescence of dissected tumor versus major tissues and organs: highest fluorescence intensity among the tissues imaged
[1]; after single administration
  retention in the tumor: up to 100 hours
[2]; 500 pmol i.v., 3, 24 and 48 hours post-injection
  fluorescence of tumor tissue: continued preferential fluorescence of tumor tissue
[2]; 500 pmol i.v., 2 hours post-injection
  localization in the tumor: localization of the compound in the tumor is apparent
[3]; 4° C.
  uptake into the cells: Little, if any
[3]; 37° C.
  uptake into the cells: Uptake of the compound into the cells is apparent
[4]; 4° C.
  uptake into the cells: no apparent fluorescence
[4]; 37° C.
  uptake into the cells: took in the compound
[5]; 4° C.
  uptake into the tumor cells: little of the compound
[5]; 37° C.
  uptake into the tumor cells: resulted in uptake
[6]; 4° C.
  uptake of the fluorescent compound by the cells: lack of fluorescing cells
[6]; 37° C.
  uptake of the fluorescent compound by the cells: considerably more uptake
[7]
  UV absorption wavelength: about 675 nm
  fluorescent emission wavelength: about 694 nm
[8]
  stability in mouse serum: stable

## CCN1\C(=C/C=C/C=C/C2=[N+](CCCCCC(=O)O)c3ccc4c(S(=O)(=O)O)cc(S(=O)(=O)O)cc4c3C2(C)C)C(C)(C)c2c1ccc1c(S(=O)(=O)[O-])cc(S(=O)(=O)O)cc21 [Cy5.5® dye, reference compound]
[7]
  UV absorption wavelength: about 675 nm
  fluorescent emission wavelength: about 694 nm
